Data taken from patent US7741287B2, “Peptides for the treatment of herpes virus infections” (IPF PharmaCeuticals GmbH, priority 2004, dated 2010).
Where no end group is shown, it is not given here.

Test system: HSV-2
Format: cell-based, herpes simplex virus type 2 (HSV-2)
Conditions: ELVIS cell infection assay; virus not given

VCVLAHHFGKEF [VCVLAHHFGKEF (SEQ ID NO:2)]
antiviral activity in cellular infection assay: high activity
